In patent US20240374551A1, “ENTERO-ANTISEPTIC FOR THE TREATMENT OF GASTROINTESTINAL INFECTIONS IN HUMANS” (priority 2023, published 2024):

How the values were obtained:
Escherichia coli 0157H5 = test: Zone diameter on Müler-Hinton-Agar; type: cell-based
Listeria monocytogenes = test: Zone diameter on Müler-Hinton-Agar; type: cell-based
bacteria = test: In vitro studies of bactericide effect versus Thymol and Carvacrol; type: cell-based
white lab mice [1] = test: Acute toxicity, parenteral intraperitoneal LD50 i.p., mice; settings: mouse, in vivo
Vibrio = test: Zone diameter on Müler-Hinton-Agar; type: cell-based
mammalian cells = test: Pilot test of effect on mitotic cell division; settings: compound in tablet form
Streptococcus uberis = test: Zone diameter on Müler-Hinton-Agar; type: cell-based
Staphylococcus aureus = test: Zone diameter on Müler-Hinton-Agar; type: cell-based
Salmonella = test: Zone diameter on Müler-Hinton-Agar; type: cell-based
Listeria = test: Zone diameter on Müler-Hinton-Agar; type: cell-based
white lab rats [2] = test: Acute toxicity, parenteral intraperitoneal LD50 i.p., rats
[3] = test system: Salmonella typhimurium DT104; test: Zone diameter on Müler-Hinton-Agar; type: cell-based
[4] = Clinical pilot study on side effects, 60 humans; type: in vivo; settings: 250 mg/30 kg body weight every 12 h for 7 days
Protocol: The reason for this testing was to check if the compound tablets, after a longer period of use, can cause any eventual side effects.
The test results were generated and monitored to obtain the relevant information and facts. In this study, the general monitored parameters were: pulse, breathing, ECG (Electrocardiography), discomfort, adverse events, and/or allergy monitoring. These parameters were measured before the treatment with the compound and 15 min after its intake. The compound was ingested on the therapeutic days in each patient at 8.00 AM and 8.00 PM CET (paragraph [0034] and paragraph [0035]). After The compound had been consumed, the physician made observations for 30 min. The patients' feelings during and after the compound intake were also recorded for each participant.
As part of the biochemical analysis of patients' blood, each patient's blood sample was checked for biochemical parameters. Blood samples were taken from each patient before the beginning of the test, on the 4th day from the tests beginning, and on the 8th day from the tests beginning. […] The biochemical parameters that were measured in blood samples include: • 1. Liver status • 2. C Reactive protein • 3. Kidney status
The dose was: 250 mg of the compound/30 kg of the body weight every 12 h for seven (7) days (paragraph [0034] and paragraph [0035]). […]

white lab rats [5] = test: Acute toxicity, oral LD50 p.o., rats
Shigella = test: Zone diameter on Müler-Hinton-Agar; type: cell-based
Streptococcus pyogenes = test: Zone diameter on Müler-Hinton-Agar; type: cell-based
Yersinia = type: cell-based; settings: Müler-Hinton-Agar
white lab mice [6] = test: Acute toxicity, oral LD50 p.o., mice
Streptococcus pneumonia = test: Zone diameter on Müler-Hinton-Agar; type: cell-based
Campylobacter = test: Zone diameter on Müler-Hinton-Agar; type: cell-based

2-(2-isopropyl-5-methylphenoxy)-2-oxoethan-1-aminium 2-isopropyl-5methylphenolate [The novel compound]
R (evaluation by zone diameter) (Escherichia coli 0157H5): ES (21 mm and more: extremely sensitive: ES)
R (evaluation by zone diameter) (Listeria monocytogenes): ES (21 mm and more: extremely sensitive: ES)
bactericide effect compared with Thymol and Carvacrol (bacteria): more effective and faster bactericide effect than existing Thymol and Carvacrol
mice that changed their behavior and demonstrated discomfort (white lab mice [1]): 27
time after which discomfort symptoms disappeared (white lab mice [1]): 3 to 5 min
R (evaluation by zone diameter) (Vibrio): ES (21 mm and more: extremely sensitive: ES)
effect on mitotic cell division (mammalian cells): no negative effects were diagnosed
R (evaluation by zone diameter) (Streptococcus uberis): ES (21 mm and more: extremely sensitive: ES)
R (evaluation by zone diameter) (Staphylococcus aureus): ES (21 mm and more: extremely sensitive: ES)
R (evaluation by zone diameter) (Salmonella): ES (21 mm and more: extremely sensitive: ES)
R (evaluation by zone diameter) (Listeria): ES (21 mm and more: extremely sensitive: ES)
rats that changed their behavior and demonstrated discomfort (white lab rats [2]; out of 100 rats, i.p. dose 2,500 mg/kg): 35
time after which discomfort symptoms disappeared (white lab rats [2]; rats, i.p., 2,500 mg/kg): 5 to 6 min
R (evaluation by zone diameter) [3]: ES (21 mm and more: extremely sensitive: ES)
allergy symptoms [4]: no allergy symptoms
tolerance [4]: showed tolerance
rats that changed their behavior and demonstrated light discomfort (white lab rats [5]; out of 100 rats, oral dose 2,500 mg/kg): 37
time after which discomfort symptoms disappeared (white lab rats [5]; rats, p.o., 2,500 mg/kg): 1 to 3 min
R (evaluation by zone diameter) (Shigella): ES (21 mm and more: extremely sensitive: ES)
R (evaluation by zone diameter) (Streptococcus pyogenes): ES (21 mm and more: extremely sensitive: ES)
R (evaluation by zone diameter) (Yersinia): ES (21 mm and more: extremely sensitive: ES)
time after which discomfort symptoms disappeared (white lab mice [6]; mice, p.o., 2,000 mg/kg): 1 to 3 min
mice that changed their behavior and demonstrated light discomfort (white lab mice [6]; out of 100 mice, oral dose 2,000 mg/kg): 21
R (evaluation by zone diameter) (Streptococcus pneumonia): ES (21 mm and more: extremely sensitive: ES)
R (evaluation by zone diameter) (Campylobacter): ES (21 mm and more: extremely sensitive: ES)

CC1(C)S[C@@H]2[C@H](NC(=O)[C@H](N)c3ccccc3)C(=O)N2[C@H]1C(=O)O [Ampicillin]
R (evaluation by zone diameter) (Escherichia coli 0157H5): MS (5 mm-9 mm: moderately sensitive: MS)
R (evaluation by zone diameter) (Listeria monocytogenes): MS (5 mm-9 mm: moderately sensitive: MS)
R (evaluation by zone diameter) (Vibrio): R (0 mm-4 mm: resistant: R)
R (evaluation by zone diameter) (Streptococcus uberis): R (0 mm-4 mm: resistant: R)
R (evaluation by zone diameter) (Staphylococcus aureus): R (0 mm-4 mm: resistant: R)
R (evaluation by zone diameter) (Salmonella): MS (5 mm-9 mm: moderately sensitive: MS)
R (evaluation by zone diameter) (Listeria): R (0 mm-4 mm: resistant: R)
R (evaluation by zone diameter) [3]: MS (5 mm-9 mm: moderately sensitive: MS)
R (evaluation by zone diameter) (Shigella): MS (5 mm-9 mm: moderately sensitive: MS)
R (evaluation by zone diameter) (Streptococcus pyogenes): R (0 mm-4 mm: resistant: R)
R (evaluation by zone diameter) (Yersinia): R (0 mm-4 mm: resistant: R)
R (evaluation by zone diameter) (Streptococcus pneumonia): R (0 mm-4 mm: resistant: R)
R (evaluation by zone diameter) (Campylobacter): R (0 mm-4 mm: resistant: R)
